Reference: article PMC9297976 (Journal of Applied Toxicology, 2021)

Columns and labels:
medaka ARβ (mArβ) [1] = target: T1, medaka ARβ (mArβ) (Oryzias latipes, UniProt D1MV73); experiment: Medaka ARβ reporter gene assay, agonist assay; type: cell-based, Japanese medaka (Oryzias latipes)
T1 sequence (D1MV73 1-744): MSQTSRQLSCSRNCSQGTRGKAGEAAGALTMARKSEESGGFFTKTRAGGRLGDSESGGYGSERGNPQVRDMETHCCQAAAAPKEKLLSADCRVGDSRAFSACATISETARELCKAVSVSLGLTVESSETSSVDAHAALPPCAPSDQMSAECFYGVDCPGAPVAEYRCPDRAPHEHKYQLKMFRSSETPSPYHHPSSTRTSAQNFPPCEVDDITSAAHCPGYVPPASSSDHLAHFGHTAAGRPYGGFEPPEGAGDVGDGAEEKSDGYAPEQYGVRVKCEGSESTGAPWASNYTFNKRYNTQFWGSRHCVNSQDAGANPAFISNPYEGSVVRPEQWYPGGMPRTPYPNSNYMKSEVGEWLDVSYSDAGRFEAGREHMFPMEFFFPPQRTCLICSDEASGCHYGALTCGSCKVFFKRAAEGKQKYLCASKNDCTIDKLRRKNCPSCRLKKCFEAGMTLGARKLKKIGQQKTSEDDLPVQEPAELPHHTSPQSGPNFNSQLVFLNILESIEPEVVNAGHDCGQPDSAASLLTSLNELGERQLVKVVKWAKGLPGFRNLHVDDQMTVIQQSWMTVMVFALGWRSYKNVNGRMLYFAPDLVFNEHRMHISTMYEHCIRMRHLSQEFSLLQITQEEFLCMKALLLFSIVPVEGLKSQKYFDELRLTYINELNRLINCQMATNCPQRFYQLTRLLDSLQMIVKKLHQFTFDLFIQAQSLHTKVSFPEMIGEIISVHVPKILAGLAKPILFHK

[2] = test system: Japanese medaka (Oryzias latipes); experiment: Fish Short‐Term Reproduction Assay; type: in vivo; settings: for LOECREPRO: LOEC on reproduction (fecundity and/or fertility); for LOECTOX: lowest observed effect concentration on mortality; for GSI Female / GSI Male / HSI Female / HSI Male / Length Female / Length Male / Weight Female / Weight Male: completion of exposure
medaka Esr1 (mEsr1) [3] = target: T2, medaka Esr1 (mEsr1) (Oryzias latipes, UniProt P50241); experiment: Medaka Esr1 reporter gene assay, antagonist assay; type: cell-based, Japanese medaka (Oryzias latipes)
T2 sequence (P50241 1-620): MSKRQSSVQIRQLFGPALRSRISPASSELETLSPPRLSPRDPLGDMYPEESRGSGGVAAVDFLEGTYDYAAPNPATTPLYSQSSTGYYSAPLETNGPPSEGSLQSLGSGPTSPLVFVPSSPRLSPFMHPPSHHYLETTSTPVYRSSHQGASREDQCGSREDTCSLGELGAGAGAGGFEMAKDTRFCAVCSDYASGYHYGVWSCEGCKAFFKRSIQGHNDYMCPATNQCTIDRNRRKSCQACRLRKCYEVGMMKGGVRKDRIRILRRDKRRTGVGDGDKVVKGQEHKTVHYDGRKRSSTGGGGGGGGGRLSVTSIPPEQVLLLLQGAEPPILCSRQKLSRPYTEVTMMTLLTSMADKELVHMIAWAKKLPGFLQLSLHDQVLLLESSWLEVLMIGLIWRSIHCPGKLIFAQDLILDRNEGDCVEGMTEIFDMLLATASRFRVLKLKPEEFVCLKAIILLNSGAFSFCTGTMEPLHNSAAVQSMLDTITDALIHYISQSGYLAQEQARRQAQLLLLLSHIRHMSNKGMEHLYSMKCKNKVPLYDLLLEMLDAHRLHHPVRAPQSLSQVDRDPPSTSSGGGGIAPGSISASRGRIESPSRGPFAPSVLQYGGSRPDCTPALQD

medaka Esr1 (mEsr1) [4] = target: T2, medaka Esr1 (mEsr1); experiment: cell-based; set-up: species or system Japanese medaka (Oryzias latipes)
medaka ARβ (mArβ) [5] = target: T1, medaka ARβ (mArβ); experiment: Medaka ARβ reporter gene assay, antagonist assay; type: cell-based, Japanese medaka (Oryzias latipes); settings: 11‐KT spiked at 50 nM (D)
[6] = 2.94 mg/L measured, 21 d, sig. ↑ vs control
[7] = 2.94 mg/L measured, 21 d, sig. ↓ vs control
[8] = measured concentration 0.311 mg/L
[9] = measured concentration 0.926 mg/L
[10] = measured concentration 2.94 mg/L
[11] = 18.5 mg/L measured, 21 d, sig. ↑ vs control
[12] = measured concentration 2.25 mg/L
[13] = measured concentration 4.76 mg/L
[14] = measured concentration 8.72 mg/L
[15] = measured concentration 18.5 mg/L

## CCCOC(=O)c1ccc(O)cc1 [PPB, 4‐Hydroxybenzoate propyl]
Medaka ARβ (mArβ) [1]; MAC = 1.0 × 10^−5 M
  Agonistic activity: NE (MAC = 1.0 × 10^−5 M)
[2]; 0.311 mg/L measured, 21 d
  Fertility rate: 93 ± 3.1%
  Hepatic VTG, female: 1,190 ± 238 ng/mg‐liver
  Mortality: 0.0%
  Mortality, number of dead fish: 0
  Number of fertilized eggs (per female per day): 26 ± 0.8
  Number of total eggs (per female per day): 28 ± 1.6
  SSC female (joint plates with papillary processes): 0 ± 0
[2]; 0.311 mg/L measured, 21 d, sig. ↑ vs control
  Hepatic VTG, male: 23.7 ± 9.0 ng/mg‐liver
[2]; 0.926 mg/L measured, 21 d
  Fertility rate: 94 ± 3.7%
  Hepatic VTG, female: 1,590 ± 271 ng/mg‐liver
  Mortality: 0.0%
  Mortality, number of dead fish: 0
  Number of total eggs (per female per day): 23 ± 2.0
  SSC female (joint plates with papillary processes): 0 ± 0
[2]; 0.926 mg/L measured, 21 d, sig. ↑ vs control
  Hepatic VTG, male: 42.2 ± 36.8 ng/mg‐liver
[2]; 0.926 mg/L measured, 21 d, sig. ↓ vs control
  Number of fertilized eggs (per female per day): 22 ± 1.6
[2]; 2.94 mg/L measured, 21 d
  Mortality: 0.0%
  Mortality, number of dead fish: 0
  SSC female (joint plates with papillary processes): 0 ± 0
[2]; [6]
  Hepatic VTG, female: 3,540 ± 1,080 ng/mg‐liver
  Hepatic VTG, male: 4,170 ± 513 ng/mg‐liver
[2]; [7]
  Fertility rate: 41 ± 23%
  Number of total eggs (per female per day): 10 ± 4.7
[2]; 21 d
  Change of hepatic VTG levels in females (in words): significant increase
  Fecundity, number of total eggs (in words): statistically significant decrease
  LOEC, elevated hepatic VTG in males: 0.311 mg/L
[2]
  LOECREPRO: 926 µg/L
  LOECTOX: ND (>2,940) μg/L
[2]; Oryzias latipes, 504 h, read-out: LOECmVTG
  minimal effective concentration: 0.311 µg/mL
[2]; concentrations without overt toxicity
  LOECREPRO (reduction in fecundity or fertility): 926 µg/L
[2]; [8]
  GSI Female: 10.0 ± 0.2%
  GSI Male: 0.74 ± 0.14%
  HSI Female: 5.4 ± 0.75%
  HSI Male: 2.7 ± 0.98%
  Length Female: 36.1 ± 0.2 mm
  Length Male: 36.4 ± 1.3 mm
  Weight Female: 525 ± 27 mg
  Weight Male: 525 ± 13 mg
[2]; [9]
  GSI Female: 9.9 ± 1.1%
  GSI Male: 0.78 ± 0.05%
  HSI Female: 5.1 ± 0.20%
  HSI Male: 2.7 ± 0.23%
  Length Female: 36.8 ± 0.8 mm
  Length Male: 37.1 ± 1.7 mm
  Weight Female: 539 ± 21 mg
  Weight Male: 515 ± 49 mg
[2]; [10]
  GSI Female: 10.0 ± 1.1%
  GSI Male: 0.81 ± 0.21%
  HSI Female: 4.3 ± 0.77%
  HSI Male: 2.3 ± 0.14%
  Length Female: 36.5 ± 1.5 mm
  Length Male: 36.5 ± 0.9 mm
  Weight Female: 549 ± 83 mg
  Weight Male: 490 ± 26 mg
Medaka Esr1 (mEsr1) [3]; E2 spiked at 0.2 nM (A), MAC = 1.0 × 10^−5 M
  Antagonistic activity: NE (MAC = 1.0 × 10^−5 M)^(A)
Medaka Esr1 (mEsr1) [4]
  EC50: 7 µM
Medaka Esr1 (mEsr1) [4]; mode of action in which EC50 or PC10 was obtained in RGA
  In vitro positive: Esr: Esr
Medaka ARβ (mArβ) [5]; MAC = 1.0 × 10^−5 M
  Antagonistic activity: NE (MAC = 1.0 × 10^−5 M)^(D)

## O=C1NC(=O)C(c2ccccc2)(c2ccccc2)N1 [PHT, Phenitoin, reference compound]
Medaka ARβ (mArβ) [1]; MAC = 1.0 × 10^−4 M
  Agonistic activity: NE (MAC = 1.0 × 10^−4 M)
[2]; 2.25 mg/L measured, 21 d
  Fertility rate: 92 ± 2.8%
  Hepatic VTG, female: 685 ± 110 ng/mg‐liver
  Hepatic VTG, male: 1.4 ± 0.5 ng/mg‐liver
  Mortality: 0.0%
  Mortality, number of dead fish: 0
  Number of fertilized eggs (per female per day): 18 ± 4.3
  Number of total eggs (per female per day): 20 ± 5.0
  SSC female (joint plates with papillary processes): 0 ± 0
  SSC male (joint plates with papillary processes): 95 ± 14
[2]; 4.76 mg/L and above
  Abnormal behavior (in words): fish frequently showed abnormal behavior such as loss of balance
[2]; 4.76 mg/L measured, 21 d
  Fertility rate: 86 ± 9.3%
  Hepatic VTG, female: 1,013 ± 183 ng/mg‐liver
  Hepatic VTG, male: 4.2 ± 6.7 ng/mg‐liver
  Mortality: 0.0%
  Mortality, number of dead fish: 0
  Number of fertilized eggs (per female per day): 17 ± 3.2
  Number of total eggs (per female per day): 20 ± 2.0
  SSC female (joint plates with papillary processes): 0 ± 0
[2]; 8.72 mg/L measured, 21 d
  Hepatic VTG, female: 661 ± 199 ng/mg‐liver
  Hepatic VTG, male: 1.0 ± 0.4 ng/mg‐liver
  Mortality: 4.2%
  Mortality, number of dead fish: 1
  SSC female (joint plates with papillary processes): 0 ± 0
  SSC male (joint plates with papillary processes): 99 ± 21
[2]; 8.72 mg/L measured, 21 d, sig. ↓ vs control
  Fertility rate: 49 ± 12%
[2]; 18.5 mg/L measured, 21 d
  Hepatic VTG, female: 693 ± 243 ng/mg‐liver
  Hepatic VTG, male: 1.4 ± 0.9 ng/mg‐liver
  SSC female (joint plates with papillary processes): 0 ± 0
  SSC male (joint plates with papillary processes): 85 ± 15
[2]; [11]
  Mortality: 33%
  Mortality, number of dead fish: 8
[2]; 18.5 mg/L measured, 21 d, sig. ↓ vs control
  Fertility rate: 18 ± 4.1%
[2]; 21 d
  Change of hepatic VTG levels in females (in words): did not reduce
  Fecundity, number of total eggs (in words): statistically significant decrease
[2]; LOEC on VTG induction in males
  LOECmVTG: ND (>18,500) μg/L
[2]
  LOECREPRO: 8,720 μg/L
  LOECTOX: 4,760 μg/L
[2]; [12]
  GSI Female: 8.3 ± 0.8%
  GSI Male: 1.32 ± 0.77%
  HSI Male: 1.4 ± 0.36%
  Length Female: 35.9 ± 0.4 mm
  Length Male: 35.9 ± 0.6 mm
  Weight Female: 466 ± 26 mg
  Weight Male: 435 ± 26 mg
[2]; [13]
  GSI Female: 9.0 ± 1.4%
  GSI Male: 1.00 ± 0.26%
  HSI Male: 1.6 ± 0.35%
  Length Female: 35.5 ± 1.0 mm
  Length Male: 36.5 ± 1.5 mm
  Weight Female: 463 ± 10 mg
  Weight Male: 435 ± 63 mg
[2]; [14]
  GSI Female: 19.3 ± 10%
  GSI Male: 1.04 ± 0.31%
  HSI Male: 2.2 ± 0.30%
  Length Female: 36.0 ± 0.5 mm
  Length Male: 36.5 ± 0.1 mm
  Weight Female: 576 ± 28 mg
  Weight Male: 415 ± 31 mg
[2]; [15]
  GSI Female: 17.0 ± 9.7%
  GSI Male: 0.44 ± 0.26%
  HSI Male: 3.4 ± 0.47%
  Length Female: 37.5 ± 1.4 mm
  Length Male: 38.4 ± 1.4 mm
  Weight Female: 609 ± 67 mg
  Weight Male: 507 ± 83 mg
Medaka Esr1 (mEsr1) [3]; antagonist assays
  Antagonistic activity on mEsr1 (in words): inhibited the transcriptional activity on mEsr1 by E2
Medaka Esr1 (mEsr1) [3]; mode of action in which IC50 or IC30 was obtained in RGA
  In vitro positive: aEsr: aEsr
Medaka Esr1 (mEsr1) [3]; read-out: Antagonistic activity IC50, E2 spiked at 0.2 nM (A)
  IC50: 2100 nM
Medaka Esr1 (mEsr1) [4]; MAC = 1.0 × 10^−4 M
  Agonistic activity: NE (MAC = 1.0 × 10^−4 M)
Medaka ARβ (mArβ) [5]; MAC = 3.2 × 10^−5 M
  Antagonistic activity: NE (MAC = 3.2 × 10^−5 M)^(D)
